Tested on: colonic propulsive motility in mice
Assay: Glass bead test of colonic propulsive motility in mice
Conditions: for Expulsion Time (min.) Mean ± SEM: 3 mm glass bead inserted 30 min after dosing, female Swiss Webster mice

## CN(C)C(=O)C(CCN1CCC(O)(c2ccc(Cl)cc2)CC1)(c1ccccc1)c1ccccc1 [loperamide]
10 mg/kg PO
  Expulsion Time (min.) Mean ± SEM: 26.0 ± 2.6 min
Mus musculus, po
  inhibition at 10 mg/kg: 81%

## CN1c2ccccc2C(NCCCCCCC(=O)O)c2ccc(Cl)cc2S1(=O)=O (stereo not shown) [tianeptine, 7-[(3-chloro-6,11-dihydro-6-methyl-dibenzo[c,f][1,2]thiazepin-11-yl)amino] heptanoic acid S,S-dioxide]
10 mg/kg PO
  Expulsion Time (min.) Mean ± SEM: 16.6 ± 3.6 min
30 mg/kg PO
  Expulsion Time (min.) Mean ± SEM: 25.7 ± 2.3 min
30 mg/kg tianeptine PO
  effect compared with 10 mg/kg dose of loperamide: equivalent in effect to a 10 mg/kg dose of loperamide
60 mg/kg PO
  Expulsion Time (min.) Mean ± SEM: 29.8 ± 0.2 min
10, 30 and 60 mg/kg PO
  effect on colonic propulsion (in words): dose-related inhibition of colonic propulsion
Mus musculus, po
  inhibition at 10 mg/kg: 38%
  inhibition at 30 mg/kg: 80%
  inhibition at 60 mg/kg: 98%

— patent publication US6683072B1, “Compositions and methods for treatment of irritable bowel syndrome and nonulcer dyspepsia” (Vela Pharmaceuticals, Inc., priority 2003, dated 2004)
